Here are results for 23 molecules from patent US20240166770A1, “COMPOSITIONS AND METHODS FOR INHIBITION OF CELL-PENETRATING ANTIBODIES” (Yale University, priority 2019, published 2024).

Like-named read-outs stand apart in the source and are kept apart here.

The term IC50 denotes the midpoint of a concentration-inhibition curve. For orientation: Ki means the dissociation constant of the complex between target and ligand, obtained from inhibition or displacement.

The target in data set [1] is T1, hENT4 (Homo sapiens, UniProt Q7RTT9).
T1 sequence (Q7RTT9 1-530): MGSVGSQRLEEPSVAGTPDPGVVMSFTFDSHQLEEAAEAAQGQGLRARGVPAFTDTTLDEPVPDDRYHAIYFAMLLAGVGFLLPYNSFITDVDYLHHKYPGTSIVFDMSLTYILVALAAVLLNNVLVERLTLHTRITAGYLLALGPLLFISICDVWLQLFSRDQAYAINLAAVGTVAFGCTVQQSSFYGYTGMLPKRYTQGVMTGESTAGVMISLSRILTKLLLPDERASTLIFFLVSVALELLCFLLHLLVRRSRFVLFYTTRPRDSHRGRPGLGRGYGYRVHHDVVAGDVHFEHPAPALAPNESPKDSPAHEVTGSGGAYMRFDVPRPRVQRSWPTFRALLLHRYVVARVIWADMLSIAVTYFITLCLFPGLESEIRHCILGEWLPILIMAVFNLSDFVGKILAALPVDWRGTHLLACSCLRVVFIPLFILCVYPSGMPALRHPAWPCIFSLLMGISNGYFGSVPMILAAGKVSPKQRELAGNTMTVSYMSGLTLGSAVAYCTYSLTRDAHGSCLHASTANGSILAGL
The note with it: cited from earlier work.

In the next data set the target is T2, hENT1 (Homo sapiens, UniProt Q99808).
T2 sequence (Q99808 1-456): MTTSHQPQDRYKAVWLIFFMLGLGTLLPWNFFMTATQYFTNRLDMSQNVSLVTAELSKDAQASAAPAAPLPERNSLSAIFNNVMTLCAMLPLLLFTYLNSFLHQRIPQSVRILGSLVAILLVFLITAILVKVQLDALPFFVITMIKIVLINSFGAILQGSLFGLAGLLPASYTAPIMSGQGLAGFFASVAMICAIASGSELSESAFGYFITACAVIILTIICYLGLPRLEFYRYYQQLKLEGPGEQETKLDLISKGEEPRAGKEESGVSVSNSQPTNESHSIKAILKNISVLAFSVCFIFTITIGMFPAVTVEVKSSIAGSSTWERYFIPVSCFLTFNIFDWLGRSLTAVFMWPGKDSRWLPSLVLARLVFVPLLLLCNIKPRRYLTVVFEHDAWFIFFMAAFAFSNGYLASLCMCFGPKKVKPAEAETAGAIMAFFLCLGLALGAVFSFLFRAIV
The note with it: cited from earlier work.

The target in data set [2] is T3, ENT2 (Homo sapiens, UniProt Q14542).
T3 sequence (Q14542 1-456): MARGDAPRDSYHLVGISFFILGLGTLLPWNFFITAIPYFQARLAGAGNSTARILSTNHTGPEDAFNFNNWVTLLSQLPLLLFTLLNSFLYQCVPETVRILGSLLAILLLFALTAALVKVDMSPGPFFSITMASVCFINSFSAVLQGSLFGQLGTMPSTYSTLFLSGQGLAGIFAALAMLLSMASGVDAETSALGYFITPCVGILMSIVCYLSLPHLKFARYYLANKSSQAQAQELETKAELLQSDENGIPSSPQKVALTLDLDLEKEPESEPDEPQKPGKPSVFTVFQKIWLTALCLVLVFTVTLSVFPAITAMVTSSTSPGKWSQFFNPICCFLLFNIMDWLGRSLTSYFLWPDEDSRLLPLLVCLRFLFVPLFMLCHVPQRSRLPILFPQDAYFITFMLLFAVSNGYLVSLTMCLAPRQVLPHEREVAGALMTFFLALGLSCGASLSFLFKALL
As to conditions: cited from earlier work.

In data set [3] the target is T3, ENT2. As to conditions: cited from earlier work; for Ki: Visser et al. 2002.
The target of data set [4] is T3, ENT2. As to conditions: ENT2-dependent transduction; cited from earlier work.
Data set [5] addresses T1, hENT4. The note with it: cited from earlier work. The source holds these as a separate data set.
Data set [6] relates to hCMEC/D3 Transwell filter BBB model. In words: Transwell filter model of the human BBB (hCMEC/D3 and normal human astrocytes). As to conditions: basolateral chamber one hour after addition to apical chamber, western blot. In kind it is in vitro ADME.
Data set [7] has as its system TNBC brain metastases (231-BR cells). In kind it is in vivo. The note with it: 20 mg/kg tail vein 3x/week for 4 weeks. As for the experimental part:
TNBC brain metastases were generated in mice by intracardiac injection of luciferase-expressing 231-BR cells. Mice were treated with tail vein injection of control (PBS) or h3E10 di-scFv (20 mg/kg) 3×/week for 4 weeks, and brain metastases were tracked by IVIS.

Setting [8] is: Table 1, different ring systems at the 4- and 8-positions.
Where [9] appears, read: Table 4, modification at hydroxyl groups of dipyridamole.
Where [10] appears, read: Table 3, free hydrogen on the nitrogen of 4- and 8-position substituents.
The mark [11] stands for this setting: Table 2, opening chain analogues.

On to `OCCN(CCO)c1nc(N2CC3CC4CC(C3)CC2C4)c2nc(N(CCO)CCO)nc(N3CC4CC5CC(C4)CC3C5)c2n1` [compound 19], for which the IC50 was 200 nM on hENT4 [1] (setting [8]) and 393 nM on hENT1 (setting [8]).

As for `C1CCN(c2nc(N3CCOCC3)nc3c(N4CCCCC4)nc(N4CCOCC4)nc23)CC1` [compound 73], the IC50 on hENT1 (setting [9]) was 1640 nM.

Consider `OCCN(CCO)c1nc(Nc2ccccc2)c2nc(N(CCO)CCO)nc(Nc3ccccc3)c2n1` [compound 68], for which the IC50 at hENT1 (setting [10]) was 1120 nM.

Take `OCCNc1nc(NC2CCC2)c2nc(NCCO)nc(NC3CCC3)c2n1` [compound 63]: the half-inhibitory concentration (IC50) is 1860 nM on hENT1 (setting [10]) and 7750 nM on ENT2 [2] (setting [10]).

For the molecule `CC(C)CNc1nc(N(CCO)CCO)nc2c(NCC(C)C)nc(N(CCO)CCO)nc12` [compound 50], the figures for the IC50 at hENT4 [1] (setting [10]), on hENT1 (setting [10]) and on ENT2 [2] (setting [10]) were 3060 nM, 126 nM and 1490 nM, respectively.

Turning to `COCCN(CCOC)c1nc(N(CCO)CCO)nc2c(N(CCOC)CCOC)nc(N(CCO)CCO)nc12` [compound 35], the results for the IC50 at hENT4 [1] (setting [11]), on hENT1 (setting [11]) and on ENT2 [2] (setting [11]) were 104000 nM, 538 nM and 2090 nM, respectively.

For the molecule `CCCN(CCC)c1nc(N(CCO)CCO)nc2c(N(CCC)CCC)nc(N(CCO)CCO)nc12` [compound 25], the results for the IC50 on hENT4 [1] (setting [11]), on hENT1 (setting [11]) and on ENT2 [2] (setting [11]) were 234 nM, 197 nM and 3830 nM, respectively.

For `CNc1nc(N(CCO)CCO)nc2c(NC)nc(N(CCO)CCO)nc12` [compound 40], the IC50 at hENT1 (setting [10]) is 8460 nM.

Regarding `OCCNc1nc(N2CC3CC4CC(C3)CC2C4)c2nc(NCCO)nc(N3CC4CC5CC(C4)CC3C5)c2n1` [compound 20], the concentration for half-maximal inhibition (IC50) at hENT4 [1] (setting [8]) is 602 nM; on hENT1 (setting [8]), 1430 nM.

For `CC(C)OCCN(CCO)c1nc(N2CCCCC2)c2nc(N(CCO)CCOC(C)C)nc(N3CCCCC3)c2n1` [compound 79], the IC50 at hENT1 (setting [9]) is 67.5 nM; on ENT2 [2] (setting [9]), 175 nM.

On to `CC(C)(C)OC(=O)N1CCN(c2nc(N(CCO)CCO)nc3c(N4CCN(C(=O)OC(C)(C)C)CC4)nc(N(CCO)CCO)nc23)CC1` [compound 7], for which the IC50 was 580 nM on hENT1 (setting [8]) and 2230 nM on ENT2 [2] (setting [8]).

As for `O=COCCN(CCOC=O)c1nc(N2CCCCC2)c2nc(N(CCOC=O)CCOC=O)nc(N3CCCCC3)c2n1` [compound 74], the concentration for half-maximal inhibition (IC50) on hENT1 (setting [9]) is 69.1 nM; at ENT2 [2] (setting [9]), 532 nM.

For `CCNc1nc(N(CCO)CCO)nc2c(NCC)nc(N(CCO)CCO)nc12` [compound 42], the IC50 at hENT1 (setting [10]) was 768 nM.

Turning to `CCOCCN(CCOCC)c1nc(N2CCCCC2)c2nc(N(CCOCC)CCOCC)nc(N3CCCCC3)c2n1` [compound 77], the IC50 is 29900 nM on hENT4 [1] (setting [9]) and 768 nM at hENT1 (setting [9]).

`CCC(C)(C)Nc1nc(N(CCO)CCO)nc2c(NC(C)(C)CC)nc(N(CCO)CCO)nc12` [compound 58]: the IC50 on hENT4 [1] (setting [10]) is 818 nM; at hENT1 (setting [10]), 78.9 nM.

Turning to `O=[N+]([O-])c1ccc(CSc2ncnc3c2ncn3[C@@H]2O[C@H](CO)[C@@H](O)[C@H]2O)cc1` [NBMPR], the IC50 at ENT2 [3] (Ward et al. 2000, SenGupta et al. 2002) is 2800 nM; on hENT4 [1] (setting [8]) it was 2330 nM; on ENT2 [2] (setting [8]), 1350 nM. For the same molecule, at ENT2 [4], the “inhibition of intranuclear transduction of mouse 3E10 Fv” value is reported as “inhibited”. Also, at hENT4 [5], the “inhibition of hENT4 (in words)” value is on record as “moderate inhibitors”.

In the case of `OCCN(CCO)c1nc(N2CCCCC2)c2nc(N(CCO)CCO)nc(N3CCCCC3)c2n1` [Dipyridamole, 2,6-bis-(diethanolamino)-4,8-di-piperidino-pyrimidopyrimidine], on ENT2 [3], the Ki was 6200 nM. Also, the IC50 at hENT4 [1] (setting [8]) was 2800 nM; on ENT2 [2] (setting [8]), 308 nM. In addition, the “inhibition of hENT4 (in words)” value is “only weakly inhibits” on hENT4 [5] and “moderate inhibitors” on hENT4 [5] (listed as dipyridamole).

With `CC(=O)OCCN(CCOC(C)=O)c1nc(N2CCCCC2)c2nc(N(CCOC(C)=O)CCOC(C)=O)nc(N3CCCCC3)c2n1` [compound 75], the IC50 is 14100 nM at hENT4 [1] (setting [9]) and 708 nM at ENT2 [2] (setting [9]).

Regarding `CC(C)CN(CC(C)C)c1nc(N(CCO)CCO)nc2c(N(CC(C)C)CC(C)C)nc(N(CCO)CCO)nc12` [compound 29], the IC50 is 1710 nM on hENT4 [1] (setting [11]), 2630 nM on hENT1 (setting [11]) and 1960 nM at ENT2 [2] (setting [11]).

As for `COc1cc(C(=O)OCCCN2CCCN(CCCOC(=O)c3cc(OC)c(OC)c(OC)c3)CC2)cc(OC)c1OC` [dilazep], the Ki on ENT2 [3] is 134000 nM.

Turning to `CC(C)Nc1nc(N(CCO)CCO)nc2c(NC(C)C)nc(N(CCO)CCO)nc12` [compound 46], the IC50 on hENT4 [1] (setting [10]) is 26000 nM; on ENT2 [2] (setting [10]), 3020 nM.

`OCCN(CCO)c1nc(N2CCCCCCC2)c2nc(N(CCO)CCO)nc(N3CCCCCCC3)c2n1` [compound 13]: the IC50 at hENT4 [1] (setting [8]) is 404 nM; on ENT2 [2] (setting [8]) it was 90.8 nM.

B1: h3E10 di-scFv: modified, humanized 3E10 lupus autoantibody di-scFv, SEQ ID NO:70, Variant 13 (protein)
scFv: DIQMTQSPSSLSASLGDRATITCRASKTVSTSSYSYMHWYQQKPGQPPKLLIKYASYLESGVPSRFSGSGSGTDFTLTISSLQPEDAATYYCQHSREFPWTFGGGTKVEIKRADAAPGGGGSGGGGSGGGGSEVQLVESGGGLVQPGGSLRLSCAASGFTFSNYGMHWVRQAPGKGLEWVSYISSGSSTIYYADSVKGRFTISRDNAKNSLYLQMNSLRAEDTAVYYCARRGLLLDYWGQGTTVTVSSASTKGPSVFPLAPLESSGSDIQMTQSPSSLSASLGDRATITCRASKTVSTSSYSYMHWYQQKPGQPPKLLIKYASYLESGVPSRFSGSGSGTDFTLTISSLQPEDAATYYCQHSREFPWTFGGGTKVEIKRADAAPGGGGSGGGGSGGGGSEVQLVESGGGLVQPGGSLRLSCAASGFTFSNYGMHWVRQAPGKGLEWVSYISSGSSTIYYADSVKGRFTISRDNAKNSLYLQMNSLRAEDTAVYYCARRGLLLDYWGQGTTVTVSS
Take B1: the “transport of h3E10 di-scFv across Transwell filter BBB model” value in data set [6] is given as “crosses”. Further, the “growth of brain metastases (radiance by IVIS)” value in data set [7] is listed as “Suppresses Tumor Growth”. Further, the median survival in data set [7] (control 38 days, P<0.02) worked out at 52 days.
